In PubChem BioAssay (NCI):
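The compound was tested at five concentrations on cells cultured in 96-well plates, with a 48-hour exposure period. TGI is the concentration that stops growth completely.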

Tests used:
Test in all cases: growth of human tumour cells (NCI), 48 h
[1] = system: SW-620 colon
[2] = system: 786-0 renal
[3] = system: HCT-116 colon
[4] = system: HCC-2998 colon
[5] = system: NCI-H23 lung
[6] = system: UACC-257 melanoma
[7] = system: SK-MEL-2 melanoma
[8] = system: SNB-75 CNS
[9] = system: M14 melanoma
[10] = system: MCF7 breast
[11] = system: RPMI-8226 leukemia
[12] = system: IGROV1 ovarian
[13] = system: COLO 205 colon
[14] = system: SK-OV-3 ovarian
[15] = system: SR leukemia
[16] = system: U251 CNS
[17] = system: HS 578T breast
[18] = system: HL-60(TB) leukemia
[19] = system: RXF 393 renal
[20] = system: PC-3 prostate
[21] = system: NCI/ADR-RES ovarian
[22] = system: EKVX NSCLC
[23] = system: MOLT-4 leukemia
[24] = system: LOX IMVI melanoma
[25] = system: OVCAR-5 ovarian
[26] = system: HOP-62 NSCLC
[27] = system: NCI-H226 lung
[28] = system: SF-268 CNS
[29] = system: MDA-MB-231 breast
[30] = system: A498 renal
[31] = system: SF-295 CNS
[32] = system: HCT-15 colon
[33] = system: K-562 leukemia
[34] = system: TK-10 renal
[35] = system: MDA-MB-435
[36] = system: NCI-H522 lung
[37] = system: OVCAR-8 ovarian
[38] = system: UO-31 renal
[39] = system: KM12 colon
[40] = system: OVCAR-3 ovarian
[41] = system: OVCAR-4 ovarian
[42] = system: SNB-19 CNS
[43] = system: HT29 colon
[44] = system: CCRF-CEM leukemia
[45] = system: SF-539 CNS
[46] = system: SK-MEL-28 melanoma
[47] = system: A549 NSCLC
[48] = system: DU-145 prostate
[49] = system: SK-MEL-5 melanoma
[50] = system: CAKI-1 renal
[51] = system: NCI-H460 lung
[52] = system: T-47D breast
[53] = system: MALME-3M melanoma
[54] = system: HOP-92 NSCLC
[55] = system: BT-549 breast
[56] = system: MDA-N
[57] = system: UACC-62 melanoma
[58] = system: SN12C renal
[59] = system: ACHN renal

`Clc1ccc(C2c3ccccc3-c3nc4ccccc4n32)cc1` (configuration not stated) was tested, and the TGI [1] was over 100 µM, the TGI [2] was 51 µM and the TGI [3] was over 53.3 µM. It also gave a TGI [4] of over 75.2 µM, a TGI [5] of over 100 µM and a TGI [6] of over 100 µM. The TGI [7] was over 65.4 µM, the TGI [8] was over 100 µM and the TGI [9] was 99 µM. The TGI [10] was over 68.1 µM, the TGI [11] was over 65 µM and the TGI [12] was over 86.1 µM. For the same molecule, the TGI [13] was over 100 µM, the TGI [14] was over 39 µM and the TGI [15] was over 54.4 µM. For the same molecule, the TGI [16] was over 100 µM, the TGI [17] was over 100 µM and the TGI [18] was over 83.3 µM. For the same molecule, the TGI [19] was 17.8 µM, the TGI [20] was over 77.1 µM and the TGI [21] was over 68.2 µM. For the same molecule, the TGI [22] was over 73.9 µM, the TGI [23] was over 51.7 µM and the TGI [24] was 59.2 µM. It also gave a TGI [25] of over 75 µM, a TGI [26] of 62.8 µM and a TGI [27] of over 64.5 µM. The TGI [28] was over 63.9 µM, the TGI [29] was over 100 µM and the TGI [30] was over 79.9 µM. The TGI [31] was over 36.6 µM, the TGI [32] was over 100 µM and the TGI [33] was over 100 µM. The TGI [34] was over 100 µM, the TGI [35] was over 100 µM and the TGI [36] was 67.9 µM. The TGI [37] was over 79.5 µM, the TGI [38] was over 60.5 µM and the TGI [39] was over 100 µM. The TGI [40] was 37.2 µM, the TGI [41] was over 73 µM and the TGI [42] was over 64.8 µM. The TGI [43] was over 88.9 µM, the TGI [44] was over 100 µM and the TGI [45] was over 95.4 µM. It also gave a TGI [46] of over 100 µM, a TGI [47] of over 78.7 µM and a TGI [48] of over 100 µM. It also gave a TGI [49] of over 100 µM, a TGI [50] of over 100 µM and a TGI [51] of over 100 µM. For the same molecule, the TGI [52] was over 100 µM, the TGI [53] was 82.3 µM and the TGI [54] was over 100 µM. It also gave a TGI [55] of over 100 µM, a TGI [56] of over 100 µM and a TGI [57] of over 69.4 µM. It also gave a TGI [58] of over 100 µM and a TGI [59] of over 100 µM.
In the case of `C=C[C@@]1(C)CC2(C=C(CO)C(O)O2)Oc2c1c(=O)oc1cccc(C)c21` (some centres not stated), the TGI [1] is reported as 3.74 µM, the TGI [2] is reported as 3.8 µM and the TGI [3] is reported as 3.65 µM. The TGI [4] was 40.1 µM, the TGI [5] was 21.3 µM and the TGI [6] was 35 µM. The TGI [7] was 21.7 µM, the TGI [8] was 28.8 µM and the TGI [9] was 12.1 µM. The TGI [10] was 25.1 µM, the TGI [11] was 3.82 µM and the TGI [12] was 18.4 µM. It also gave a TGI [13] of 26.9 µM, a TGI [14] of 47.3 µM and a TGI [15] of 7.75 µM. It also gave a TGI [16] of 25.6 µM, a TGI [17] of 42.9 µM and a TGI [18] of 5.12 µM. For the same molecule, the TGI [19] was 8.86 µM, the TGI [20] was 32.7 µM and the TGI [21] was 10.2 µM. The TGI [22] was 35.2 µM, the TGI [23] was 5.78 µM and the TGI [24] was 13.7 µM. For the same molecule, the TGI [25] was 36 µM, the TGI [26] was 33.8 µM and the TGI [27] was 35.5 µM. For the same molecule, the TGI [28] was 12.2 µM, the TGI [29] was 23.9 µM and the TGI [30] was 51.8 µM. For the same molecule, the TGI [31] was over 75.1 µM, the TGI [32] was 7.17 µM and the TGI [33] was 7.46 µM. The TGI [34] was 43.5 µM, the TGI [35] was 10.3 µM and the TGI [36] was 4.82 µM. For the same molecule, the TGI [37] was 9.72 µM, the TGI [38] was 19 µM and the TGI [39] was 33.9 µM. For the same molecule, the TGI [40] was 9.66 µM, the TGI [41] was 12.8 µM and the TGI [42] was 33.2 µM. For the same molecule, the TGI [43] was 21.9 µM, the TGI [44] was 7.98 µM and the TGI [45] was 12 µM. The TGI [46] was 25.5 µM, the TGI [47] was 68.7 µM and the TGI [48] was 29.1 µM. For the same molecule, the TGI [49] was 25.3 µM, the TGI [50] was 15.6 µM and the TGI [51] was 45.2 µM. For the same molecule, the TGI [52] was 44.6 µM, the TGI [53] was 26.7 µM and the TGI [54] was 40.2 µM. For the same molecule, the TGI [55] was 14.2 µM, the TGI [56] was 15.2 µM and the TGI [57] was 23.1 µM. For the same molecule, the TGI [58] was 15.9 µM and the TGI [59] was 21.2 µM.
For `CO/C(N)=C(\C#N)N=Cc1ccccc1`, the TGI [1] was over 100 µM, the TGI [2] was over 100 µM and the TGI [3] was over 100 µM. The TGI [4] was over 100 µM, the TGI [5] was over 100 µM and the TGI [6] was over 100 µM. For the same molecule, the TGI [7] was over 100 µM, the TGI [8] was over 100 µM and the TGI [9] was over 100 µM. It also gave a TGI [10] of over 100 µM, a TGI [11] of over 100 µM and a TGI [12] of over 100 µM. For the same molecule, the TGI [13] was over 100 µM, the TGI [14] was over 100 µM and the TGI [15] was over 100 µM. It also gave a TGI [16] of over 100 µM, a TGI [17] of over 100 µM and a TGI [18] of over 100 µM. The TGI [19] was over 100 µM, the TGI [20] was over 100 µM and the TGI [21] was over 100 µM. The TGI [22] was over 100 µM, the TGI [23] was over 100 µM and the TGI [24] was over 100 µM. For the same molecule, the TGI [25] was over 100 µM, the TGI [26] was over 100 µM and the TGI [27] was over 100 µM. For the same molecule, the TGI [28] was over 100 µM, the TGI [29] was over 100 µM and the TGI [30] was over 100 µM. The TGI [31] was over 100 µM, the TGI [32] was over 100 µM and the TGI [33] was over 100 µM. It also gave a TGI [34] of over 100 µM, a TGI [35] of over 100 µM and a TGI [36] of over 100 µM. It also gave a TGI [37] of over 100 µM, a TGI [38] of over 100 µM and a TGI [39] of over 100 µM. For the same molecule, the TGI [40] was over 100 µM, the TGI [41] was over 100 µM and the TGI [42] was over 100 µM. The TGI [43] was over 100 µM, the TGI [44] was over 100 µM and the TGI [45] was over 100 µM. It also gave a TGI [46] of over 100 µM, a TGI [47] of over 100 µM and a TGI [48] of over 100 µM. For the same molecule, the TGI [49] was over 100 µM, the TGI [50] was over 100 µM and the TGI [51] was over 100 µM. For the same molecule, the TGI [52] was over 100 µM, the TGI [53] was over 100 µM and the TGI [54] was over 100 µM. It also gave a TGI [55] of over 100 µM, a TGI [56] of over 100 µM and a TGI [57] of over 100 µM. It also gave a TGI [58] of over 100 µM and a TGI [59] of over 100 µM.
